Reference: paper PMC8080777, “Discovery, optimization, and evaluation of non-bile acid FXR/TGR5 dual agonists” (Scientific Reports, 2021)
“Also recorded” adds a separate entry of the source.

Tests used:
FXR = biological target: T1, FXR (Homo sapiens, UniProt Q96RI1); assay: CHO cell-based FXR luciferase reporter assay (Indigo Biosciences); conditions: for FXR Efficacy (%) (1 µM) / FXR Efficacy (%) (0.1 µM) / FXR Efficacy (%) (10 µM): % vs OCA 1 µM as 100%
T1 construct: host or cells: CHO cells
T1 sequence (Q96RI1 1-486): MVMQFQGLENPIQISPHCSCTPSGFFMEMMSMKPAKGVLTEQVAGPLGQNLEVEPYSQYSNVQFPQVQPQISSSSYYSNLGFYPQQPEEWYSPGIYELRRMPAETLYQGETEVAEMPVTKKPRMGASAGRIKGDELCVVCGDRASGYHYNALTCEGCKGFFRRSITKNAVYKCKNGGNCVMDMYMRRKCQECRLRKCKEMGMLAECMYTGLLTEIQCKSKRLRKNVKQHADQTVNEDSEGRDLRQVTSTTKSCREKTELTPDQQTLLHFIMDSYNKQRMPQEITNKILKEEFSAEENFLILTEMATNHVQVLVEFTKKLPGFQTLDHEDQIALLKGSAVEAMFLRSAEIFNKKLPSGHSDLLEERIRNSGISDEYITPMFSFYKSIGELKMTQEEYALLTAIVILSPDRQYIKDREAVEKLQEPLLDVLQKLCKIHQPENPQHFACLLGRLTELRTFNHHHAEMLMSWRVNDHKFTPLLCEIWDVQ
Experimental: To evaluate direct agonist activities against FXR, test compounds were evaluated using a CHO cell-based FXR assay by Indigo Biosciences (State College, PA), in which cells were transfected with an FXR luciferase reporter system.
To directly evaluate the in vitro agonist activity towards FXR, test compounds were evaluated in CHO cells transfected with FXR responsive luciferase reporter (Nuclear Receptor & In Vitro Toxicology Solutions, Indigo Biosciences, State College, PA, USA). […] Each compound was tested in duplicate, and the average value was reported[35],[36].
(§1) The cell recovery medium (CRM, Human Farnesoid X Receptor (NR1H4, FXR reporter assay system, Indigo Biosciences, State College, PA, USA) and compound screening medium (CSM, Human Farnesoid X Receptor (NR1H4, FXR reporter assay system, Indigo Biosciences, State College, PA, USA) were removed from the freezer and thawed in a water bath at 37 °C. Test compounds were dissolved in dimethyl sulfoxide (DMSO, FUJIFILM Wako Pure Chemical Corporation, Osaka city, Osaka, Japan), and the treatment medium was prepared and diluted with CSM to achieve a final concentration of 0.2% total DMSO. The reporter cells were thawed by transferring 3.3 mL CRM at 37 °C into tubes of frozen cells. The tube containing reporter cells was recapped, and it was immediately place in a 37 °C water bath for 5 min. The reporter cells were gently inverted several times, and 100 µL cell suspension was dispensed into each well. One hundred microliters of treatment media was added into wells. Subsequently, the assay plate was kept at 37 °C, and it was incubated with 5% CO2 for 22 h. To prepare luciferase detection reagent (LDR), the detection substrate was gently mixed with detection buffer, media contents were removed from each well, and 100 µL LDR was added to each well of the assay plate. The assay plate was allowed to rest at room temperature for 5 min, and luminescence was quantified using the Multi-Mode Microplate Reader (FlexStation 3, Molecular Devices Inc., San Jose, CA, USA)[36].
S4. In vitro, in vivo assay, and selectvity.
To directly evaluate the in vitro agonist activity towards FXR, test compounds were evaluated in CHO cells transfected with FXR responsive luciferase reporter (Nuclear Receptor & In Vitro Toxicology Solutions, Indigo Biosciences, State College, PA, USA). Cells were incubated with […]
(FlexStation 3, Molecular Devices Inc., San Jose, CA, USA). Efficacies are reported relative to […]
reporter on of 1 µM. Each compound was tested in duplicate, and the average value was […]
as §1, with “sulfoxide (DMSO ,” for “sulfoxide (DMSO,”, “Osaka, Jap an),” for “Osaka, Japan),”, “a 37°C” for “a 37 °C”, “5% CO 2” for “5% CO2”, “using […]” for “using the Multi-Mode Microplate Reader (FlexStation 3, Molecular Devices Inc., San Jose, CA, USA)[36].”

TGR5 = biological target: T2, TGR5 (Homo sapiens, UniProt Q8TDU6); assay: TGR5 cAMP assay in CHO cells transfected with TGR5 (cAMP Hunter eXpress, Discover X); assay type: cell-based
T2 construct: host or cells: CHO cells
T2 sequence (Q8TDU6 1-330): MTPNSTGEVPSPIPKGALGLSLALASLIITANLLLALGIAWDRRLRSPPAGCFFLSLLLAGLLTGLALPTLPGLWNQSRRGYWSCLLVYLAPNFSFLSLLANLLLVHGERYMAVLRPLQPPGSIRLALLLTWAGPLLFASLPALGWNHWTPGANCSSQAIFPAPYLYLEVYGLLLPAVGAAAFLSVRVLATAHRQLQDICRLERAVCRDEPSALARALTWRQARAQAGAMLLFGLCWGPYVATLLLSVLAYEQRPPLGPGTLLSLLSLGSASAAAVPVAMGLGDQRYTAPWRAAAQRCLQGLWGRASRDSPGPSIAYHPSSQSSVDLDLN
Experimental: TGR5 agonist activity was evaluated by transfecting CHO cells with TGR5 using the Discover X expression kit (cAMP Hunter eXpress GPCR Assay, Discover X Fremont, CA). Cells were incubated with test compounds for 0.5 h, and intracellular cAMP levels were measured using the multi-mode microplate reader.
(§2) TGR5 agonist activity was evaluated by transfecting CHO cells with TGR5 using the Discover X expression kit (cAMP Hunter eXpress Assay Kit, Discover X Fremont, CA, USA). Cells were incubated with the test compounds for 0.5 h, and intracellular cAMP levels were measured using Multi-Mode Microplate Reader (FlexStation 3, Molecular Devices Inc., San Jose, CA, USA).
Each compound was tested at concentrations of 10, 1, or 0.1 µM in duplicate (n = 2), with the average value shown.
S4. In vitro, in vivo assay, and selectvity. […]
In vitro TGR5 agonist assay protocol
as §2
Each compound was tested at concentrations of 10, 1, or 0.1 µM in duplicate (n=2), with the […]
parameter logistic equation, Y = min + (max - min)/(1 + 10^(n * (log10(EC50) - log10(conc)))), in […]

Row | Structure (SMILES) | FXR Efficacy (%) (1 µM) (FXR) | TGR5 Efficacy (%) (10 µM) (TGR5; % vs INT-767 10 µM as 100%) | FXR agonist activity (in words) (FXR) | TGR5 agonist activity (in words) (TGR5) | FXR Efficacy (%) (0.1 µM) (FXR) | TGR5 Efficacy (%) (1 µM) (TGR5; % vs INT-767 10 µM as 100%) | FXR Efficacy (%) (10 µM) (FXR) | TGR5 Efficacy (%) (0.1 µM) (TGR5; 0.1 µM, % vs INT-767 10 µM as 100%)
1 | Cc1cnccc1C(=O)N(C[C@H]1CC[C@H](c2ccccc2)CC1)c1cc(Cl)cc(Cl)c1 [Compound 20a] | 52.2 | 22.3 |  |  |  |  |  | 
2 | Cc1cnccc1C(=O)N(Cc1ccc(-c2ccc(N(C)C)cc2)cc1)c1cccc(-c2cnn(C(C)C)c2)c1C [Compound 13s] | 61.0 | 24.1 | moderate FXR/TGR5 agonist activity | moderate FXR/TGR5 agonist activity |  |  |  | 
3 | COc1ncc(C23CCC(CN(C(=O)c4ccncc4C)c4cc(Cl)cc(Cl)c4)(CC2)CC3)cc1C [Compound 20u] | 76.2 |  |  |  | 69.2 | 12.1 |  | 
4 | COC(=O)/C=C/c1cccc(N(Cc2ccc(-c3ccc(N(C)C)cc3)cc2)C(=O)c2cccnc2)c1 [Compound 13c] |  | 1.7 |  |  |  |  | 68.1 | 
5 | Cc1cnccc1C(=O)N(Cc1ccc(-c2ccc(N(C)C)cc2)cc1)c1cc(Cl)cc(Br)c1 [Compound 13k] | 75.9 | 47.4 | dual potencies against both FXR and TGR5 | dual potencies against both FXR and TGR5 |  |  |  | 
6 | CN(C)c1ccc(-c2ccc(CN(C(=O)c3ccccc3Cl)c3cc(Cl)cc(Cl)c3)cc2)cc1 [Compound 13ac] | 84.3 | 0.2 | strong FXR activities |  |  |  |  | 
7 | Cc1cnccc1C(=O)N(Cc1ccc(-c2ccc(N(C)C)cc2)cc1)c1cc(Cl)ccc1Cl [Compound 13q] | 1.5 | 75.2 |  | good potency against TGR5 |  |  |  | 
8 | CN(C)c1ccc(-c2ccc(CN(C(=O)c3ccncc3C3CC3)c3cc(Cl)cc(Cl)c3)cc2)cc1 [Compound 13w] | 22.7 | 73.1 |  |  |  |  |  | 
9 | Cc1cnccc1C(=O)N(CC12CCC(c3ccc(N(C)C)cc3)(CC1)CC2)c1cc(Cl)cc(Cl)c1 [Compound 20s] | 95.3 |  | high potency against FXR |  | 56.4 | 18.9 |  | 
10 | COc1ccc([C@H]2CC[C@H](CN(C(=O)c3ccncc3C)c3cc(Cl)cc(Cl)c3)CC2)cc1C [Compound 20d] | 55.2 | 28.8 | partial FXR agonists | weak TGR5 agonist |  |  | 129.6 | 
11 | COC(=O)/C=C/c1cccc(N(Cc2ccc(-c3ccc(N(C)C)cc3)cc2)C(=O)c2ccncc2)c1 [Compound 13b] | 16.7 | -2.8 |  | inactive against TGR5 |  |  | 86.9 | 
12 | COC(=O)/C=C/c1cccc(N(Cc2ccc(-c3ccc(N(C)C)cc3)cc2)C(=O)c2ccncc2C)c1F [Compound 13u] | 90.3 | -2.5 | strong FXR agonist activities |  |  |  |  | 
13 | Cc1cnccc1C(=O)N(Cc1ccc(-c2ccc(N(C)C)cc2)cc1)c1cc(Cl)cc(-c2cnn(C(C)C)c2)c1 [Compound 13o] | 68.8 | -1.5 |  |  |  |  |  | 
14 | Cc1cnccc1C(=O)N(C[C@H]1CC[C@H](c2ccc(N(C)C)cc2)CC1)c1cc(Cl)cc(Cl)c1 [Compound 20b] | 47.1 | 31.1 |  |  |  |  | 106.8 | 
15 | COc1ccc(C2C3CCC2CC(CN(C(=O)c2ccncc2C)c2cc(Cl)cc(Cl)c2)C3)cc1C (centres unmarked) [Compound 20g] | 51.1 | -5.2 |  |  |  |  |  | 
16 | Cc1cnccc1C(=O)N(Cc1ccc(-c2ccc(N(C)C)cc2)cc1)c1cc(Cl)cc(Cl)c1 [Compound 13j] | 62.1 | 59.7 | potent FXR/TGR5 dual agonist activity; also recorded: dual potencies against both FXR and TGR5 | potent FXR/TGR5 dual agonist activity; also recorded: dual potencies against both FXR and TGR5 |  |  |  | 
17 | Cc1cnccc1C(=O)N(Cc1ccc(-c2ccc(N(C)C)cc2)cc1)c1cc(Cl)cc(Cl)c1C [Compound 13r] | 8.6 | 91.9 |  | good potency against TGR5 |  |  |  | 
18 | CCC1C(O)C2C3CCC(C(C)CCOS(=O)(=O)O)C3(C)CCC2C2(C)CCC(O)CC12 (centres unmarked) [INT-767, reference compound] |  | 100 |  |  |  | 25.5 |  | 1.7
